Results taken from publication PMC8364686, “Safety, tolerability, pharmacokinetics and pharmacodynamics of single oral doses of BI 187004, an inhibitor of 11beta-hydroxysteroid dehydrogenase-1, in healthy male volunteers with overweight or obesity” (Clinical Diabetes and Endocrinology, 2021).

Experiment: Plasma pharmacokinetics of BI 187004 after single oral doses (LC–MS/MS)
Conditions: male, human, plasma, po; for concentration at 10 h: planned time 10 h; for concentration at 12 h: planned time 12 h; for concentration at 36 h: planned time 36 h; for concentration at 48 h: planned time 48 h; for concentration at 72 h: planned time 72 h; for concentration at 96 h: planned time 96 h; for concentration at 0.5 h: planned time 0.5 h; for concentration at 1 h: planned time 1 h; for concentration at 1.5 h: planned time 1.5 h; for concentration at 2 h: planned time 2 h; for concentration at 2.5 h: planned time 2.5 h; for concentration at 3 h: planned time 3 h; for concentration at 4 h: planned time 4 h; for concentration at 5 h: planned time 5 h; for concentration at 6 h: planned time 6 h; for concentration at 8 h: planned time 8 h
[1] = 40 mg, BI 187004 plasma concentrations, 40 mg single oral, Max
[2] = 40 mg, BI 187004 plasma concentrations, 40 mg single oral, Mean
[3] = 40 mg, BI 187004 plasma concentrations, 40 mg single oral, Median
[4] = 40 mg, BI 187004 plasma concentrations, 40 mg single oral, Min
[5] = 40 mg, BI 187004 plasma concentrations, 40 mg single oral, gMean
[6] = 80 mg, BI 187004 plasma concentrations, 80 mg single oral, Max
[7] = 80 mg, BI 187004 plasma concentrations, 80 mg single oral, Mean
[8] = 80 mg, BI 187004 plasma concentrations, 80 mg single oral, Median
[9] = 80 mg, BI 187004 plasma concentrations, 80 mg single oral, Min
[10] = 80 mg, BI 187004 plasma concentrations, 80 mg single oral, gMean
[11] = 160 mg, BI 187004 plasma concentrations, 160 mg single oral, Max
[12] = 160 mg, BI 187004 plasma concentrations, 160 mg single oral, Mean
[13] = 160 mg, BI 187004 plasma concentrations, 160 mg single oral, Median
[14] = 160 mg, BI 187004 plasma concentrations, 160 mg single oral, Min
[15] = 160 mg, BI 187004 plasma concentrations, 160 mg single oral, gMean
[16] = 160 mg, BI 187004 plasma concentrations, 160 mg single oral, individual subjects

N#Cc1ccc2c(c1)[C@H]1CCCN(C(=O)c3ccc4[nH]cnc4c3)[C@H]1C2 [BI 187004]
concentration at 10 h [1]: 1140 nM
concentration at 10 h [2]: 825 nM
concentration at 10 h [3]: 815 nM
concentration at 10 h [4]: 467 nM
concentration at 10 h [5]: 796 nM
concentration at 12 h [1]: 984 nM
concentration at 12 h [2]: 683 nM
concentration at 12 h [3]: 690 nM
concentration at 12 h [4]: 359 nM
concentration at 12 h [5]: 650 nM
concentration at 24 h (40 mg, BI 187004 plasma concentrations, 40 mg single oral, planned time 24 h, Max): 625 nM
concentration at 24 h (40 mg, BI 187004 plasma concentrations, 40 mg single oral, planned time 24 h, Mean): 353 nM
concentration at 24 h (40 mg, BI 187004 plasma concentrations, 40 mg single oral, planned time 24 h, Median): 335 nM
concentration at 24 h (40 mg, BI 187004 plasma concentrations, 40 mg single oral, planned time 24 h, Min): 169 nM
concentration at 24 h (40 mg, BI 187004 plasma concentrations, 40 mg single oral, planned time 24 h, gMean): 321 nM
concentration at 36 h [1]: 377 nM
concentration at 36 h [2]: 163 nM
concentration at 36 h [3]: 119 nM
concentration at 36 h [4]: 51.5 nM
concentration at 36 h [5]: 129 nM
concentration at 48 h [1]: 234 nM
concentration at 48 h [2]: 95.6 nM
concentration at 48 h [3]: 66.2 nM
concentration at 48 h [4]: 30.8 nM
concentration at 48 h [5]: 73 nM
concentration at 72 h [1]: 83.4 nM
concentration at 72 h [2]: 32 nM
concentration at 72 h [3]: 22.1 nM
concentration at 72 h [4]: 8.48 nM
concentration at 72 h [5]: 24.3 nM
concentration at 96 h [1]: 41.4 nM
concentration at 96 h [2]: 15.5 nM
concentration at 96 h [3]: 11.1 nM
concentration at 96 h [4]: 5.05 nM
concentration at 96 h [5]: 12.2 nM
concentration at 24 h (40 mg, C24 gMean (%gCV), 40 mg single oral dose): 321 nM
AUC(0-inf) (80 mg): 51.1 µM·h
AUC(0-t) (80 mg): 43.1 µM·h
Cmax (80 mg): 2460 nM
Tmax (80 mg): 2.25 h
Vd/F (80 mg): 113 L
half-life (80 mg): 17.1 h
concentration at 0.5 h [6]: 4480 nM
concentration at 0.5 h [7]: 1780 nM
concentration at 0.5 h [8]: 1020 nM
concentration at 0.5 h [9]: 304 nM
concentration at 0.5 h [10]: 1150 nM
concentration at 1 h [6]: 4770 nM
concentration at 1 h [7]: 2490 nM
concentration at 1 h [8]: 2300 nM
concentration at 1 h [9]: 771 nM
concentration at 1 h [10]: 2120 nM
concentration at 1.5 h [6]: 4150 nM
concentration at 1.5 h [7]: 2500 nM
concentration at 1.5 h [8]: 2540 nM
concentration at 1.5 h [9]: 958 nM
concentration at 1.5 h [10]: 2220 nM
concentration at 2 h [6]: 3590 nM
concentration at 2 h [7]: 2330 nM
concentration at 2 h [8]: 2400 nM
concentration at 2 h [9]: 1000 nM
concentration at 2 h [10]: 2130 nM
concentration at 2.5 h [6]: 3200 nM
concentration at 2.5 h [7]: 2350 nM
concentration at 2.5 h [8]: 2650 nM
concentration at 2.5 h [9]: 1200 nM
concentration at 2.5 h [10]: 2200 nM
concentration at 3 h [6]: 3340 nM
concentration at 3 h [7]: 2240 nM
concentration at 3 h [8]: 2470 nM
concentration at 3 h [9]: 1050 nM
concentration at 3 h [10]: 2070 nM
concentration at 4 h [6]: 3200 nM
concentration at 4 h [7]: 2200 nM
concentration at 4 h [8]: 2460 nM
concentration at 4 h [9]: 936 nM
concentration at 4 h [10]: 2020 nM
concentration at 5 h [6]: 3210 nM
concentration at 5 h [7]: 1980 nM
concentration at 5 h [8]: 2040 nM
concentration at 5 h [9]: 905 nM
concentration at 5 h [10]: 1840 nM
concentration at 6 h [6]: 2460 nM
concentration at 6 h [7]: 1740 nM
concentration at 6 h [8]: 1870 nM
concentration at 6 h [9]: 930 nM
concentration at 6 h [10]: 1650 nM
concentration at 8 h [6]: 2840 nM
concentration at 8 h [7]: 1820 nM
concentration at 8 h [8]: 1690 nM
concentration at 8 h [9]: 1100 nM
concentration at 8 h [10]: 1740 nM
concentration at 10 h [6]: 2570 nM
concentration at 10 h [7]: 1600 nM
concentration at 10 h [8]: 1460 nM
concentration at 10 h [9]: 1040 nM
concentration at 10 h [10]: 1530 nM
concentration at 12 h [6]: 2210 nM
concentration at 12 h [7]: 1380 nM
concentration at 12 h [8]: 1210 nM
concentration at 12 h [9]: 959 nM
concentration at 12 h [10]: 1320 nM
concentration at 24 h (80 mg, BI 187004 plasma concentrations, 80 mg single oral, planned time 24 h, Max): 1560 nM
concentration at 24 h (80 mg, BI 187004 plasma concentrations, 80 mg single oral, planned time 24 h, Mean): 927 nM
concentration at 24 h (80 mg, BI 187004 plasma concentrations, 80 mg single oral, planned time 24 h, Median): 812 nM
concentration at 24 h (80 mg, BI 187004 plasma concentrations, 80 mg single oral, planned time 24 h, Min): 605 nM
concentration at 24 h (80 mg, BI 187004 plasma concentrations, 80 mg single oral, planned time 24 h, gMean): 878 nM
concentration at 36 h [6]: 678 nM
concentration at 36 h [7]: 411 nM
concentration at 36 h [8]: 372 nM
concentration at 36 h [9]: 223 nM
concentration at 36 h [10]: 383 nM
concentration at 48 h [6]: 596 nM
concentration at 48 h [7]: 281 nM
concentration at 48 h [8]: 230 nM
concentration at 48 h [9]: 134 nM
concentration at 48 h [10]: 247 nM
concentration at 72 h [6]: 234 nM
concentration at 72 h [7]: 90 nM
concentration at 72 h [8]: 65.1 nM
concentration at 72 h [9]: 46.3 nM
concentration at 72 h [10]: 74.2 nM
concentration at 96 h [6]: 110 nM
concentration at 96 h [7]: 44.9 nM
concentration at 96 h [8]: 23.8 nM
concentration at 96 h [9]: 11.9 nM
concentration at 96 h [10]: 32.3 nM
concentration at 24 h (80 mg, C24 gMean (%gCV), 80 mg single oral dose): 878 nM
AUC(0-inf) (160 mg): 111 µM·h
AUC(0-t) (160 mg): 82.1 µM·h
Cmax (160 mg): 8310 nM
Tmax (160 mg): 1 h
Vd/F (160 mg): 87.9 L
half-life (160 mg): 14.5 h
concentration at 0.5 h [11]: 8780 nM
concentration at 0.5 h [12]: 6380 nM
concentration at 0.5 h [13]: 6830 nM
concentration at 0.5 h [14]: 2520 nM
concentration at 0.5 h [15]: 5860 nM
concentration at 1 h [11]: 8740 nM
concentration at 1 h [12]: 7260 nM
concentration at 1 h [13]: 7640 nM
concentration at 1 h [14]: 3920 nM
concentration at 1 h [15]: 7040 nM
concentration at 1.5 h [11]: 8830 nM
concentration at 1.5 h [12]: 7280 nM
concentration at 1.5 h [13]: 7380 nM
concentration at 1.5 h [14]: 5190 nM
concentration at 1.5 h [15]: 7190 nM
concentration at 1.5 h [16]: 7480 nM
concentration at 2 h [11]: 8640 nM
concentration at 2 h [12]: 7070 nM
concentration at 2 h [13]: 6790 nM
concentration at 2 h [14]: 6360 nM
concentration at 2 h [15]: 7030 nM
concentration at 2 h [16]: 7230 nM
concentration at 2.5 h [11]: 8030 nM
concentration at 2.5 h [12]: 6730 nM
concentration at 2.5 h [13]: 6550 nM
concentration at 2.5 h [14]: 6070 nM
concentration at 2.5 h [15]: 6700 nM
concentration at 2.5 h [16]: 6930 nM
concentration at 3 h [11]: 7450 nM
concentration at 3 h [12]: 5950 nM
concentration at 3 h [13]: 5800 nM
concentration at 3 h [14]: 5330 nM
concentration at 3 h [15]: 5910 nM
concentration at 3 h [16]: 5470 nM
concentration at 4 h [11]: 6750 nM
concentration at 4 h [12]: 5800 nM
concentration at 4 h [13]: 5790 nM
concentration at 4 h [14]: 5060 nM
concentration at 4 h [15]: 5770 nM
concentration at 4 h [16]: 5230 nM
concentration at 5 h [11]: 5220 nM
concentration at 5 h [12]: 4870 nM
concentration at 5 h [13]: 4900 nM
concentration at 5 h [14]: 4420 nM
concentration at 5 h [15]: 4860 nM
concentration at 5 h [16]: 4420 nM
concentration at 6 h [11]: 5320 nM
concentration at 6 h [12]: 4340 nM
concentration at 6 h [13]: 4230 nM
concentration at 6 h [14]: 3430 nM
concentration at 6 h [15]: 4290 nM
concentration at 6 h [16]: 4030 nM
concentration at 8 h [11]: 4580 nM
concentration at 8 h [12]: 3720 nM
concentration at 8 h [13]: 3740 nM
concentration at 8 h [14]: 2580 nM
concentration at 8 h [15]: 3670 nM
concentration at 8 h [16]: 3650 nM
concentration at 10 h [11]: 4290 nM
concentration at 10 h [12]: 3090 nM
concentration at 10 h [13]: 3040 nM
concentration at 10 h [14]: 1940 nM
concentration at 10 h [15]: 3000 nM
concentration at 12 h [11]: 3640 nM
concentration at 12 h [12]: 2990 nM
concentration at 12 h [13]: 2910 nM
concentration at 12 h [14]: 2710 nM
concentration at 12 h [15]: 2970 nM
concentration at 12 h [16]: 2710 nM
concentration at 24 h (160 mg, BI 187004 plasma concentrations, 160 mg single oral, planned time 24 h, Max): 2690 nM
concentration at 24 h (160 mg, BI 187004 plasma concentrations, 160 mg single oral, planned time 24 h, Mean): 1680 nM
concentration at 24 h (160 mg, BI 187004 plasma concentrations, 160 mg single oral, planned time 24 h, Median): 1490 nM
concentration at 24 h (160 mg, BI 187004 plasma concentrations, 160 mg single oral, planned time 24 h, Min): 1360 nM
concentration at 24 h (160 mg, BI 187004 plasma concentrations, 160 mg single oral, planned time 24 h, gMean): 1630 nM
concentration at 24 h (160 mg, BI 187004 plasma concentrations, 160 mg single oral, planned time 24 h, individual subjects): 1360 nM
